Key:
Mer = Mer (Homo sapiens (Human), UniProt Q12866); test: Human Mer kinase assay (33P radiometric, KinaseProfiler); assay type: biochemical; conditions: 10 μM ATP
Protocol: (§1) Kinase activity and compound inhibition were investigated using the ^33P-Phosphoryl transfer radiometric kinase assay, performed using the KinaseProfiler™ service of Eurofins Pharma Discovery Services UK Limited. Dose-response experiments were performed using nine compound concentrations in a 96-well microtiter plate. For each assay, all compounds were prepared to a 50× final assay concentration (50 μM) in 100% DMSO, then diluted in a half-log series, with the final top concentration at 1 μM. This working stock of the compound was added to the assay well as the first component in the reaction, followed by the remaining components as detailed in the following assay protocols below. The positive control wells (100% kinase activity) contain all components of the reaction including 2% DMSO (control for solvent effects), except the compound of interest. Blank wells contain all components of the reaction, with the reference inhibitor, staurosporine. This reference compound was used to abolish kinase activity and generated the 0% kinase activity base-line. IC50 values were calculated by nonlinear regression analysis using the sigmoidal dose-response (variable slope) curve fit on XLFit version 5.3 (ID Business Solutions).
Human Mer (residues R557-E882 with H628Q and R794A, 0.7 nM) was incubated with 8 mM MOPS pH 7.0, 0.2 mM EDTA, 30 mM NaCl, 250 μM GGMEDIYFEFMGGKKK (SEQ ID NO. 44), 10 mM magnesium acetate, and 10 μM [γ-^33P-ATP]. The reaction was initiated by the addition of the Mg/ATP mix. After incubation for 40 minutes at room temperature, the reaction was stopped by the addition of phosphoric acid to a concentration of 0.5%. A reaction aliquot of 10 μL was then spotted onto a P30 filtermat and washed four times for 4 minutes in 0.425% phosphoric acid and once in methanol prior to drying and scintillation counting. Incorporated ^33P was measured using the Wallac Microbeta scintillation counter (Perkin Elmer).

AXL = AXL (Homo sapiens (Human), UniProt P30530); test: AXL autophosphorylation ELISA in A-172 cells; assay type: cell-based; conditions: cellular, Gas6-stimulated, phospho-AXL ELISA
Chain of AXL (P30530 26-894): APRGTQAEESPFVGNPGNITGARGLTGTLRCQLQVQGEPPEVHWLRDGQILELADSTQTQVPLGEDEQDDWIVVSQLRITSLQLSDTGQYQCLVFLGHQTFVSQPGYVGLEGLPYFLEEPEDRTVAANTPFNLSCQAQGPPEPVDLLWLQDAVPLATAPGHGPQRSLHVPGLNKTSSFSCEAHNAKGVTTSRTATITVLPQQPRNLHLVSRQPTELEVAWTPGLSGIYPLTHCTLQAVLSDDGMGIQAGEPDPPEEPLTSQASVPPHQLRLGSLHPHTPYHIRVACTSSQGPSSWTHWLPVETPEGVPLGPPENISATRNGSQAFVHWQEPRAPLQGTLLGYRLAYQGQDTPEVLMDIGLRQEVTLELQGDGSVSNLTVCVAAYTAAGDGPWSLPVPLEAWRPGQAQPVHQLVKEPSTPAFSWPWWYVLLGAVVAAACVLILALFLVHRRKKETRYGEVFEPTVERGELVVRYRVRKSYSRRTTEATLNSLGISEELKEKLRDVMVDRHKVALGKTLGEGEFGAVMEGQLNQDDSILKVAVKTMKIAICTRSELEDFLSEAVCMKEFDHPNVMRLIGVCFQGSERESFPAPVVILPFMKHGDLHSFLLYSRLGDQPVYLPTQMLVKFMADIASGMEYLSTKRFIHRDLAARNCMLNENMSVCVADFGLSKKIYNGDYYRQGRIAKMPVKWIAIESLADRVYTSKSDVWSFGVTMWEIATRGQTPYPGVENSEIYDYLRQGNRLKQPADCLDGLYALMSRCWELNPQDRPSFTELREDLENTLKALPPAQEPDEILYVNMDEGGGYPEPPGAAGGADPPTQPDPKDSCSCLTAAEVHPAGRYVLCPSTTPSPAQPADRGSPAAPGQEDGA
In short: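 A-172 glioblastoma cells, serum-starved 24 h, took compounds for 1 h (8-point curve, 0.3% DMSO) before 15 min stimulation with 1 μg/mL recombinant human Gas6. Lysate phospho-AXL measured by ELISA against a phospho-AXL standard, normalized to DMSO (100%) and reference inhibitor (0%); IC50 from 4-parameter logistic fit.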

Human Axl = Human Axl (Homo sapiens (Human), UniProt P30530, Q764R); test: Human AXL kinase assay (33P radiometric, KinaseProfiler); assay type: biochemical; conditions: 10 μM ATP
Chain of Human Axl (P30530 473-894 Q764R): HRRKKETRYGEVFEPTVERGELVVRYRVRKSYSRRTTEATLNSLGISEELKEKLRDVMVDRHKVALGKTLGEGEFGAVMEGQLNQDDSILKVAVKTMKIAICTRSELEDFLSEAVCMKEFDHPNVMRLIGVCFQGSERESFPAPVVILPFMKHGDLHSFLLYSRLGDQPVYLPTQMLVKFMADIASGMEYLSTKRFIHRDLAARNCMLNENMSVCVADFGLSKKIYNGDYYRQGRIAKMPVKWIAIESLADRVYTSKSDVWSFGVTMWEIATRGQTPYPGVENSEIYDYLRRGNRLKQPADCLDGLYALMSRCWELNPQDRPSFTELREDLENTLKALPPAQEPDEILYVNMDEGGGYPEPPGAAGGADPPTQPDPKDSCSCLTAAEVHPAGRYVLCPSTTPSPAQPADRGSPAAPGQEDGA
Protocol: as §1
Human Axl (residues H473-A894 with Q764R, 161 nM) was incubated with 8 mM MOPS pH 7.0, 0.2 mM EDTA, 250 μM KKSRGDYMTMQIG (SEQ ID NO. 43), 10 mM magnesium acetate and 10 μM [γ-33P-ATP]. The reaction was initiated by the addition of the Mg/ATP mix. After incubation for 40 minutes at room temperature, the reaction was stopped by the addition of phosphoric acid to a concentration of 0.5%. A reaction aliquot of 10 μL was then spotted onto a P30 filtermat and washed four times for 4 minutes in 0.425% phosphoric acid and once in methanol prior to drying and scintillation counting. Incorporated ^33P was measured using the Wallac Microbeta scintillation counter (Perkin Elmer).

Met = Met (Homo sapiens (Human), UniProt P08581); test: Human Met kinase assay (33P radiometric, KinaseProfiler); assay type: biochemical; conditions: 10 μM ATP, read-out: c-Met IC50
Protocol: as §1
Human Met (residues R974-S1390 with A1209G and V1290L, 3.4 nM) was incubated with 8 mM MOPS pH 7.0, 0.2 mM EDTA, 250 μM KKKGQEEEYVFIE (SEQ ID NO. 45), 1 mM sodium orthovanadate, 5 mM […], 10 mM magnesium acetate, and 10 μM [γ-33P-ATP]. The reaction was initiated by the addition of the Mg/ATP mix. After incubation for 40 minutes at room temperature, the reaction was stopped by the addition of phosphoric acid to a concentration of 0.5%. A reaction aliquot of 10 μL was then spotted onto a P30 filtermat and washed four times for 4 minutes in 0.425% phosphoric acid and once in methanol prior to drying and scintillation counting. Incorporated 33P was measured using the Wallac Microbeta scintillation counter (Perkin Elmer).

KDR = KDR (Homo sapiens (Human), UniProt P35968); test: KDR autophosphorylation ELISA in HUVEC cells; assay type: cell-based; conditions: cellular, VEGF165-stimulated, phospho-KDR ELISA
Chain of KDR (P35968 20-1356): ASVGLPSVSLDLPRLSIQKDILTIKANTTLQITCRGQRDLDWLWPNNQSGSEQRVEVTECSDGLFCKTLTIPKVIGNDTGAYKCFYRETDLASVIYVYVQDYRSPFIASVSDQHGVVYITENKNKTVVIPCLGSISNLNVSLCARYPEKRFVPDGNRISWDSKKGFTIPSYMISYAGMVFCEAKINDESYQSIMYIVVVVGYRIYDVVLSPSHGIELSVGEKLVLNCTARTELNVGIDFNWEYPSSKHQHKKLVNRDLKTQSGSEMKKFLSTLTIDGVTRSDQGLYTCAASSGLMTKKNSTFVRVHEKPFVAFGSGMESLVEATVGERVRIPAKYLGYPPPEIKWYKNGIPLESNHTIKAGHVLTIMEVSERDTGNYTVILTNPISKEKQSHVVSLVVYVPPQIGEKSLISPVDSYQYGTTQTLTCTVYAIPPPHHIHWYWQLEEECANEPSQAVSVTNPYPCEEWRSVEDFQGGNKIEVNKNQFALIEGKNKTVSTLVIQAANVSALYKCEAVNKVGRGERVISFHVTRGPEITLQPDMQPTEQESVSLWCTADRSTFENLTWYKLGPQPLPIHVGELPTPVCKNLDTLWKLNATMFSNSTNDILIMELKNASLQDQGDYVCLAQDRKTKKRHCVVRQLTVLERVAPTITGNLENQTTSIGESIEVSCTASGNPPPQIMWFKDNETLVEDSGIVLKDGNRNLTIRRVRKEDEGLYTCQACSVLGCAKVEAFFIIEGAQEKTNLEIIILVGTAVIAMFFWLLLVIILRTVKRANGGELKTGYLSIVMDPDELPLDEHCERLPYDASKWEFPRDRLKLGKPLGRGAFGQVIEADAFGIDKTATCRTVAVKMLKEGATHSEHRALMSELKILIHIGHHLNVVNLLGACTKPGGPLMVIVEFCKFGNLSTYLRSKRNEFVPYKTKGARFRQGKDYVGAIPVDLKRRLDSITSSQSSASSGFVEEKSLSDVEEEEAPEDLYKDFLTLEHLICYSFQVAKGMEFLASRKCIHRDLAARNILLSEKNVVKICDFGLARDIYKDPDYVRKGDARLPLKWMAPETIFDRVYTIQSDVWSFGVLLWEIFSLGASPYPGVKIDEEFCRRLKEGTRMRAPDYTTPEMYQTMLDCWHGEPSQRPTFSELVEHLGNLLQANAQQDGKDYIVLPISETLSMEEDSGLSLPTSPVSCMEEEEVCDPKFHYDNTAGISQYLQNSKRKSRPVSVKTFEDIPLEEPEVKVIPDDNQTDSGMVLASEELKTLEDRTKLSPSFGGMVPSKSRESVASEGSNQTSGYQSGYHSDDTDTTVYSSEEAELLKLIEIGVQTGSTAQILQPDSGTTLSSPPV
In short: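 Serum-starved (24 h) primary HUVEC were pretreated 1 h with compounds (8-point dilution, 0.3% DMSO final), then stimulated 5 min with 100 ng/mL VEGF165. Lysate phospho-KDR quantified by sandwich ELISA against a phospho-KDR standard; IC50 by 4-parameter fit, normalised to stimulated DMSO and unstimulated controls.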

Chain of Mer (Q12866 557-882): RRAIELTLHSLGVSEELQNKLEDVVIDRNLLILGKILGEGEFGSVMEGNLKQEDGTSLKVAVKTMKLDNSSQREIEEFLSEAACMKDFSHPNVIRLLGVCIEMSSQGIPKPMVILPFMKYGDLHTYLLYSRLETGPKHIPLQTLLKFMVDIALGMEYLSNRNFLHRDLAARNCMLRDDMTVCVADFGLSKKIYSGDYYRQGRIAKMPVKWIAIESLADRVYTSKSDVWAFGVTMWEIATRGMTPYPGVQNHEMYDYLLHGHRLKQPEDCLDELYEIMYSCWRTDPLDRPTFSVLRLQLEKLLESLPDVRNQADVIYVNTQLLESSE

Row | IC50 (Mer) [µM] | IC50 (AXL) [µM] | IC50 (Human Axl) [µM] | IC50 (Met) [µM] | IC50 (KDR) [µM] | Compound
1 | 0.1 to 1 | > 0.3 | 0.1 to 1 | 0.01 to 0.1 | > 0.3 | COc1cc2nccc(Oc3ncc(NC(=O)C4(C(=O)Nc5ccc(F)cc5)CC4)cc3Cl)c2cc1C(=O)O [Compound 14, 4-[3-Chloro-5-[[1-[(4-fluorophenyl)carbamoyl]cyclopropanecarbonyl]amino]pyridin-2-yl]oxy-7-methoxyquinoline-6-carboxylic acid]
2 | 0.1 to 1 | – | 0.1 to 1 | 0.1 to 1 | – | COc1cc2nccc(Oc3ccc(NC(=O)C4(C(=O)Nc5ccc(F)cc5)CC4)cn3)c2cc1C(=O)O [Compound 13, 4-[5-[[1-[(4-Fluorophenyl)carbamoyl]cyclopropanecarbonyl]-amino]pyridin-2-yl]oxy-7-methoxyquinoline-6-carboxylic acid]

From US11673897B2, “Compounds for the treatment of kinase-dependent disorders” (Exelixis, Inc., priority 2018, dated 2023)
